Measurements from patent US20260092179A1, “GENETICALLY MODIFIED HOST CELLS PRODUCING VIOLACEIN, ANALOGUES, AND DERIVATIVES THEREOF” (OCTARINE BIO APS, priority 2022, published 2026).

Assays:
[1] = Temperature stability of dyed fabrics (colour fastness, ΔE); assay type: physicochemical; details: oven 80° c. for 4 h; for ΔE: before and after the stability test
Experimental: (§1) In order to assess the stability and colour fastness of violacein and violacein derivatives dyed onto fabrics, dyed fabrics were subjected to a number of conditions. Fabrics were dyed according to Example 18 and colour coordinates and colour change before and after exposure to a given condition were determined as described in Example 18. To measure temperature stability, fabrics were incubated in an oven set to 80° c. for 4 h. To measure stability under acid and alkaline conditions, fabrics were fully submerged in water solutions set to pH 8 with NaOH and pH 5 with HCl and incubated at room temperature for 30 minutes. Fabrics were then incubated at 37° c. for 4 h. To measure stability during laundering, fabrics were washed at 30° c. under the “mix” setting of a Siemens IQ300 washing machine, then dried in a Siemens IQ300 dryer until dry. To measure artificial light stability, fabrics were placed under an LED lamp at room temperature for 16 h. To measure UV light stability, fabrics were placed under a UV lamp at room temperature for 1 h.

[2] = Acidic pH stability of dyed fabrics (colour fastness, ΔE); assay type: physicochemical; details: pH 5 with HCl
Experimental: as §1

[3] = Alkaline pH stability of dyed fabrics (colour fastness, ΔE); assay type: physicochemical; details: pH 8 with NaOH
Experimental: as §1

S. cerevisiae S228c = assay: Antimicrobial activity of dyed Nylon 6,6 fabric: final OD600 and % inhibition; assay type: cell-based
E. coli DH5a = assay: as above; assay type: cell-based
[4] = Acrylic, before and after the stability test
[5] = Bleached cotton, before and after the stability test
[6] = Diacetate, before and after the stability test
[7] = Nylon 6,6, before and after the stability test
[8] = Polyester, before and after the stability test
[9] = Wool, before and after the stability test

O=C1N=C(c2c[nH]c3ccc(O)cc23)C=C1c1c[nH]c2ccccc12 [proviolacein]
L ([1]; Acrylic, After test): 58.24 | a ([1]; Acrylic, After test): −0.6 | b ([1]; Acrylic, After test): 1.57 | L ([1]; Acrylic, Before test): 56.45 | a ([1]; Acrylic, Before test): −2.01 | b ([1]; Acrylic, Before test): 2.1 | ΔE ([1]; Acrylic): 2.34 | L ([1]; Bleached cotton, After test): 61.95 | a ([1]; Bleached cotton, After test): 1.2 | b ([1]; Bleached cotton, After test): 2.46 | L ([1]; Bleached cotton, Before test): 62.46 | a ([1]; Bleached cotton, Before test): 0.6 | b ([1]; Bleached cotton, Before test): 2.51 | ΔE ([1]; Bleached cotton): 0.79 | L ([1]; Diacetate, After test): 59.98 | a ([1]; Diacetate, After test): 5.39 | b ([1]; Diacetate, After test): 6.04 | L ([1]; Diacetate, Before test): 61.94 | a ([1]; Diacetate, Before test): 4.17 | b ([1]; Diacetate, Before test): 5.25 | ΔE ([1]; Diacetate): 2.44 | L ([1]; Nylon 6,6, After test): 49.91 | a ([1]; Nylon 6,6, After test): −1.59 | b ([1]; Nylon 6,6, After test): −4 | L ([1]; Nylon 6,6, Before test): 50.83 | a ([1]; Nylon 6,6, Before test): −2.09 | b ([1]; Nylon 6,6, Before test): −3.92 | ΔE ([1]; Nylon 6,6): 1.05 | L ([1]; Polyester, After test): 62.77 | a ([1]; Polyester, After test): −0.52 | b ([1]; Polyester, After test): 1.37 | L ([1]; Polyester, Before test): 64.1 | a ([1]; Polyester, Before test): −1.81 | b ([1]; Polyester, Before test): 1.31 | ΔE ([1]; Polyester): 1.85 | L ([1]; Wool, After test): 64.23 | a ([1]; Wool, After test): 0.18 | b ([1]; Wool, After test): 4.96 | L ([1]; Wool, Before test): 65.67 | a ([1]; Wool, Before test): −0.22 | b ([1]; Wool, Before test): 4.25 | ΔE ([1]; Wool): 1.65 | L ([2]; Acrylic, After test): 58.2 | a ([2]; Acrylic, After test): −1.53 | b ([2]; Acrylic, After test): 3.12 | L ([2]; Acrylic, Before test): 59.15 | a ([2]; Acrylic, Before test): −0.61 | b ([2]; Acrylic, Before test): 1.45 | ΔE [2, 4]: 2.13 | L ([2]; Bleached cotton, After test): 65.48 | a ([2]; Bleached cotton, After test): 1.87 | b ([2]; Bleached cotton, After test): 2.2 | L ([2]; Bleached cotton, Before test): 62.48 | a ([2]; Bleached cotton, Before test): 1.73 | b ([2]; Bleached cotton, Before test): 2.27 | ΔE [2, 5]: 3.00 | L ([2]; Diacetate, After test): 59.6 | a ([2]; Diacetate, After test): 4.35 | b ([2]; Diacetate, After test): 7.87 | L ([2]; Diacetate, Before test): 60.94 | a ([2]; Diacetate, Before test): 4.79 | b ([2]; Diacetate, Before test): 4.9 | ΔE [2, 6]: 3.29 | L ([2]; Nylon 6,6, After test): 52.72 | a ([2]; Nylon 6,6, After test): −1.67 | b ([2]; Nylon 6,6, After test): −3.52 | L ([2]; Nylon 6,6, Before test): 50.84 | a ([2]; Nylon 6,6, Before test): 0.04 | b ([2]; Nylon 6,6, Before test): −4.68 | ΔE [2, 7]: 2.79 | L ([2]; Polyester, After test): 64.14 | a ([2]; Polyester, After test): −1.28 | b ([2]; Polyester, After test): 2.92 | L ([2]; Polyester, Before test): 64.55 | a ([2]; Polyester, Before test): −1.43 | b ([2]; Polyester, Before test): 1.3 | ΔE [2, 8]: 1.68 | L ([2]; Wool, After test): 66.56 | a ([2]; Wool, After test): −0.93 | b ([2]; Wool, After test): 5.56 | L ([2]; Wool, Before test): 65.49 | a ([2]; Wool, Before test): −1.55 | b ([2]; Wool, Before test): 5.81 | ΔE [2, 9]: 1.26 | L ([3]; Acrylic, After test): 58.76 | a ([3]; Acrylic, After test): −2.16 | b ([3]; Acrylic, After test): 3.85 | L ([3]; Acrylic, Before test): 57.87 | a ([3]; Acrylic, Before test): −0.46 | b ([3]; Acrylic, Before test): 1.91 | ΔE [3, 4]: 2.73 | L ([3]; Bleached cotton, After test): 64.37 | a ([3]; Bleached cotton, After test): 2.22 | b ([3]; Bleached cotton, After test): 2.08 | L ([3]; Bleached cotton, Before test): 63.78 | a ([3]; Bleached cotton, Before test): 2.31 | b ([3]; Bleached cotton, Before test): 1.4 | ΔE [3, 5]: 0.90 | L ([3]; Diacetate, After test): 61.54 | a ([3]; Diacetate, After test): 3.25 | b ([3]; Diacetate, After test): 6.78 | L ([3]; Diacetate, Before test): 60.55 | a ([3]; Diacetate, Before test): 3.12 | b ([3]; Diacetate, Before test): 6.29 | ΔE [3, 6]: 1.11 | L ([3]; Nylon 6,6, After test): 50.89 | a ([3]; Nylon 6,6, After test): −1.8 | b ([3]; Nylon 6,6, After test): −3.04 | L ([3]; Nylon 6,6, Before test): 52.98 | a ([3]; Nylon 6,6, Before test): −2.5 | b ([3]; Nylon 6,6, Before test): −3.65 | ΔE [3, 7]: 2.29 | L ([3]; Polyester, After test): 64.69 | a ([3]; Polyester, After test): −1.03 | b ([3]; Polyester, After test): −0.34 | L ([3]; Polyester, Before test): 64.55 | a ([3]; Polyester, Before test): −2.15 | b ([3]; Polyester, Before test): 1.47 | ΔE [3, 8]: 2.13 | L ([3]; Wool, After test): 65.28 | a ([3]; Wool, After test): −1.97 | b ([3]; Wool, After test): 5.42 | L ([3]; Wool, Before test): 65.56 | a ([3]; Wool, Before test): −2.33 | b ([3]; Wool, Before test): 7.35 | ΔE [3, 9]: 1.98 | Final OD600 (S. cerevisiae S228c; S. cerevisiae cultured overnight at 30° c. with dyed Nylon 6,6 fabric strip, starting OD600 0.1): 4.39 | % Inhibition (S. cerevisiae S228c; S. cerevisiae, dyed Nylon 6,6 fabric vs undyed fabric control): 18.13% | growth inhibition of S. cerevisiae (S. cerevisiae S228c; dyed Nylon 6,6 fabric strip in culture, overnight 30° c., OD600 versus undyed fabric): most inhibited | Final OD600 (E. coli DH5a; E. coli cultured overnight at 30° c. with dyed Nylon 6,6 fabric strip, starting OD600 0.1): 4.52 | % Inhibition (E. coli DH5a; E. coli, dyed Nylon 6,6 fabric vs undyed fabric control): 13.33%
